We go through 1 molecule from US20080190575A1, “Lignocellulosic Composite Material and Method for Preparing the Same” (priority 2004, published 2008).

The structures appear in SMILES notation.

The data set in a line: Dissolvability of insecticide in solvent. The format is physicochemical. The text has this: It has been determined that certain polar solvents are capable of dissolving at least 10 grams of the insecticide per liter of solvent. For example, it has also been determined that water is not a sufficient polar solvent for certain insecticides, such as fipronil, because it is capable of only dissolving 2.4 milligrams per liter of water. Generally, these polar solvents that are capable of dissolving at least 10 grams of the insecticide per liter are selected from at least one of an alcohol, a ketone, and an ester. More preferably, the polar solvent is selected from the group of octyl alcohol, isopropyl alcohol, methyl alcohol, acetone, carpryl alcohol, propylene carbonate, gamma-butyrolactone, 3-pentanone, 1-methyl-2-pyrrolidinone, and combinations thereof.
In Examples 1 and 2, the lignocellulosic composite material was formed having a thickness of 0.437 inches with a density of about 39 lb/ft^3. […] The fipronil was present in an amount of about 150 PPM based on the dry weight of the lignocellulosic particles. In Example 2, 0.28 grams of fipronil were dissolved in 1.00 grams of the polar solvent to form the insecticide solution. The fipronil was present in an amount of about 30 PPM based on the dry weight of the lignocellulosic particles. The polar solvent was 1-methyl-2-pyrrolidinone (NMP). NMP is capable of dissolving about 289 grams of fipronil per liter of NMP.
In Examples 3 and 4, the lignocellulosic composite material was formed having a thickness of 0.719 inches with a density of about 40 lb/ft^3. In Example 3, 1.15 grams of fipronil were dissolved in 5 grams of the polar solvent to form the insecticide solution. The fipronil was present in an amount of about 50 PPM based on the dry weight of the lignocellulosic particles. […] The fipronil was present in an amount of about 100 PPM based on the dry weight of the lignocellulosic particles. The polar solvent in Examples 3 and 4 was 3-pentanone, which is capable of dissolving about 326 grams of fipronil per liter of 3-pentanone.

`N#Cc1nn(-c2c(Cl)cc(C(F)(F)F)cc2Cl)c(N)c1[S+]([O-])C(F)(F)F` (stereo not drawn) [fipronil, 5-amino-1-(2,6-dichloro-4-(trifluoromethyl)phenyl)-4-((trifluoromethyl)sulfinyl)-1H-pyrazole-3-carbonitrile]: the “amount dissolved per liter of NMP” value (solvent 1-methyl-2-pyrrolidinone (NMP)) is “about 289 grams per liter”. Also, the “amount dissolved per liter of 3-pentanone” value (solvent 3-pentanone) was “about 326 grams per liter”. In addition, the “amount dissolved per liter of water” value (solvent water) was found to be 2.4 milligrams per liter.
